Laboratory results published in patent US20260070887A1 (Shenzhen Zhongge Biological Technology Co., Ltd., priority 2022, published 2026).

Target: KIF18A (Homo sapiens (Human), UniProt Q8NI77)
Assay: KIF18A ATPase activity under tubulin stimulation (ADP-Glo assay)
Type: biochemical
Details: KIF18A 30 nM, ATP 150 μM, pig microtubules
Protocol: This experiment assesses the inhibitory effect of the compounds of the present disclosure on the KIF18A target according to the IC50 values by measuring the KIF18A ATPase activity under tubulin stimulation with the presence of the compounds.
• 1. Preparation of 30 mL of reaction buffer: • (1) 450 μL 1M Tris-HCl (pH=7.5)+300 μL 1M MgCl2+30 μL 10% Pluronic F-68 (ThermoFisher, 24040032-100 ml); • (2) adjusting pH to 7.5, and adding water to adjust the volume to 30 mL. • 2. Preparation of a 5 mg/mL pig microtubule (Microtubules; MT) (Cytoskeleton Inc, MT002) stock solution: • (1) 10 mL PM buffer=150 μL 1 M PIPES (pH 7.0)+20 μL 0.5 mM MgCl2+100 μL 2 mM Taxol (Cytoskeleton Inc, TXD01)+9730 μL water. • (2) MT ([…]): Adding 100 μL PM buffer to prepare a 5 mg/mL stock solution. Keeping the MT (Cytoskeleton Inc, MT002) at room temperature for 10-15 minutes, gently mixing and storing same at −80° C. • 3. Preparation of 2 mL of kinase buffer: 2 mL reaction buffer+1 μL 2 mM Taxol (Cytoskeleton Inc, TXD01)+12 μL 5 mg/mL MT (Cytoskeleton Inc, MT002). • 4. Preparation of 2×KIF18A (30 nM) (ChemPartner, CPB-P22-31645) working solution: 2.4 μL 10 μM KIF18A (ChemPartner, CPB-P22-31645)+800 μL 1× kinase buffer. • 5. Preparation of 2×ATP (150 μM) (Promega, G9101) working solution: 12 μL 10 mM ATP+800 μL 1× kinase buffer. • 6. 25 nL of compound was transferred to a 384-well plate using Echo650. • 7. 2.5 μL of 2×KIF18A from Step 4 (final concentration of 30 nM) was added to the 384-well plate and the plate was incubated at 25° C. for 15 minutes. • 8. 2.5 μL of 2×ATP from Step 5 (final concentration of 150 μM) was added to the 384-well plate and the plate was incubated at 25° C. for 15 minutes. • 9. 5 μL ADP-Glo™ Reagent (Promega, G9101) was added to the 384-well plate and the plate was incubated at 25° C. for 40 minutes. • 10. 10 μL of kinase detection reagent (Promega, G9101) was added to the 384-well plate and the plate was incubated at 25° C. for 40 minutes. • 11. Luminescence values were measured using the EnVision Xcite Multilabel Reader (PerkinElmer, 2105-0020).

KIF18A, sequence (Q8NI77 whole entry): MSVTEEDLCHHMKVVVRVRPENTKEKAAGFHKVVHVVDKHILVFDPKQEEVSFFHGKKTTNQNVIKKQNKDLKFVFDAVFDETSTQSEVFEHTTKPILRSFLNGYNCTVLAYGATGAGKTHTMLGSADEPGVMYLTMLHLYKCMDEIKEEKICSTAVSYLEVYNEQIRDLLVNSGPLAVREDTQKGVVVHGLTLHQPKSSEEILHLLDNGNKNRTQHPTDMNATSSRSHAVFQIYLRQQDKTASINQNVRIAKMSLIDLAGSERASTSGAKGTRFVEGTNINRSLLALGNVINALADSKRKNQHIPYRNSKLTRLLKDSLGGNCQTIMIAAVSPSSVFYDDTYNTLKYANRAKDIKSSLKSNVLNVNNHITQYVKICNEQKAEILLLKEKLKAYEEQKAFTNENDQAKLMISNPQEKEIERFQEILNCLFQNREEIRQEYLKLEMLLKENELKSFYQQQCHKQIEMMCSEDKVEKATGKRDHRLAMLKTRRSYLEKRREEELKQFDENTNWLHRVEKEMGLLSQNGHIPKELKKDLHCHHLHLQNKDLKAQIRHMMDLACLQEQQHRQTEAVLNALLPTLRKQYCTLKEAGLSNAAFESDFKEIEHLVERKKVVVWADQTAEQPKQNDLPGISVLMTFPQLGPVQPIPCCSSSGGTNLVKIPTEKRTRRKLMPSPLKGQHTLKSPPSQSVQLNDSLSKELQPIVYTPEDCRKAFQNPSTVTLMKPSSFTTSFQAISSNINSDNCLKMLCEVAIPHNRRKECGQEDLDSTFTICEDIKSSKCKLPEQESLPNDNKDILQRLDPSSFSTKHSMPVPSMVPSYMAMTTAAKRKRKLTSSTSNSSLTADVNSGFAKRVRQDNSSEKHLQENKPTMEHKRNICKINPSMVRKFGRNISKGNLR
KIF18A, sequence (P02550 whole entry partner): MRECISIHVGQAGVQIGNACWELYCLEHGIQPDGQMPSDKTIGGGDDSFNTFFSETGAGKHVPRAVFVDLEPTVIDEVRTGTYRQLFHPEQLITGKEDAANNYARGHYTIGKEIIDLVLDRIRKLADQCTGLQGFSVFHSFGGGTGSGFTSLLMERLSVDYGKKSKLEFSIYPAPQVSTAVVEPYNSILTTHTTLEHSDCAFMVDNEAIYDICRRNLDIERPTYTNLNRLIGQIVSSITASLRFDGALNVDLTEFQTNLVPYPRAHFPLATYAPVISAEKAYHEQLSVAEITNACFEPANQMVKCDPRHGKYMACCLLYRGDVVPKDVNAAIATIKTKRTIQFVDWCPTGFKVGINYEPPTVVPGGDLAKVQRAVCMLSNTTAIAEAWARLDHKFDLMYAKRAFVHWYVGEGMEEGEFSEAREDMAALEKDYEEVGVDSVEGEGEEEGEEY
KIF18A, sequence (P02554 whole entry partner): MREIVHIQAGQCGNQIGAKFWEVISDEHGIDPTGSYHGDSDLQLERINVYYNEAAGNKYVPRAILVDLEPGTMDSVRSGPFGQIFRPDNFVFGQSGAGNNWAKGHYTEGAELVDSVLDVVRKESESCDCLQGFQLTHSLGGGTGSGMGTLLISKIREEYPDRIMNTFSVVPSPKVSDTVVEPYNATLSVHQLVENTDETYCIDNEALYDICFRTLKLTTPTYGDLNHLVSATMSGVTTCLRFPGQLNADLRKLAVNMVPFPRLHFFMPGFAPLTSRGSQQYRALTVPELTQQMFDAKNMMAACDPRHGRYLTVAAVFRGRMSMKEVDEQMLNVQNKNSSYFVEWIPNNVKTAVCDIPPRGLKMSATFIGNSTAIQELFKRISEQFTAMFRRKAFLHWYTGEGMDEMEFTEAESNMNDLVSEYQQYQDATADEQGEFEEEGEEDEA

Structure (SMILES)	IC50
O=C(Nc1ccnc2c1CCN2CC1CC1)c1ccc(NS(=O)(=O)CCO)cc1N1CCC2(CC1)CC2 [Example 32, N-(1-(cyclopropylmethyl)-2,3-dihydro-1H-pyrrolo[2,3-b]pyridin-4-yl)-4-((2-hydroxyethyl)sulfanilamido)-2-(6-azaspiro[2.5]octan-6-yl)4-benzamide]	50 to 500 nM
O=C(Nc1nccc2c1cc1n2CCOC1)c1ccc(NS(=O)(=O)CCO)cc1N1CCC2(CC1)CC2 [Example 306, N-(3,4-dihydro-1H-pyridino[3′,4′:4,5]pyrrolo[2,1-c][1,4]oxazin-9-yl)-4-((2-hydroxyethyl)sulfonamido)-2-(6-azaspiro[2.5]oct-6-yl)benzamide]	> 5000 nM
Cc1cc(NC(=O)c2ccc(NS(=O)(=O)CCO)cc2OC2CC3(CCC3)C2)nc(N2CCC(F)(F)CC2)n1 [Example 26, N-(2-(4,4-difluoropiperidin-1-yl)-6-methylpyrimidin-4-yl)-4-((2-hydroxyethyl)sulfonamido)-2-(spiro[3.3]heptan-2-yloxy)benzamide]	50 to 500 nM
Cc1cc(NC(=O)c2ccc(NS(=O)(=O)CCO)cc2N2CCC3(CC2)CC3)c2ccn(CC3CC3)c2n1 [Example 37, N-(1-(cyclopropylmethyl)-6-methyl-1H-pyrrolo[2,3-b]pyridin-4-yl)-4-((2-hydroxyethyl)sulfonamido)-2-(6-azaspiro[2.5]oct-6-yl)benzamide]	50 to 500 nM
O=C(Nc1cnc2n1CCCC2)c1ccc(NS(=O)(=O)CCO)cc1N1CCC2(CC1)CC2 [Example 19, 4-((2-hydroxyethyl)sulfonamido)-2-(6-azaspiro[2.5]octan-6-yl)-N-(5,6,7,8-tetrahydroimidazo[1,2-a]pyridin-3-yl)benzamide]	> 5000 nM
O=C(Nc1ccc2c(c1)N(CC1CC1)CC2)Nc1ccc(NS(=O)(=O)CCO)cc1N1CCC2(CC1)CC2 [Example 150, N-(4-(3-(1-(cyclopropylmethyl)indolin-6-yl)urea)-3-(6-azaspiro[2.5]octan-6-yl)phenyl)-2-hydroxyethane-1-sulfonamide]	> 5000 nM
COC1c2cc3c(NC(=O)c4ccc(NS(=O)(=O)CCO)cc4N4CCC5(CC4)CC5)cccc3n2CCC1(F)F (single isomer, unassigned) [Compound 385-P2, N-(8,8-difluoro-9-(methoxy-d3)-6,7,8,9-tetrahydropyridino[1,2-a]indol-1-yl)-4-((2-hydroxyethyl)sulfonamido)-2-(6-azaspiro[2.5]oct-6-yl)benzamide]	50 to 500 nM
O=C(Nc1cccc2c1CCN2CC1CCC1)c1ccc(NS(=O)(=O)CCO)cc1N1CCC2(CC1)CC2 [Example 14, N-(1-(cyclobutylmethyl)dihydroindol-4-yl)-4-((2-hydroxyethyl)sulfonamido)-2-(6-azaspiro[2.5]octan-6-yl)benzamide]	50 to 500 nM
Nc1cc(NS(=O)(=O)CCO)cc(N2CCC3(CC2)CC3)c1C(=O)Nc1cccc2c1CCN2CC1CC1 [Example 42]	50 to 500 nM
CC1(Cn2ccc3c(NC(=O)c4ccc(NS(=O)(=O)CCO)cc4N4CCC5(CC4)CC5)cccc32)CC1 [Example 285, 4-((2-hydroxyethyl)sulfonamido)-N-(1-((1-methylcyclopropyl)methyl)-1H-indol-4-yl)-2-(6-azaspiro[2.5]oct-6-yl)benzamide]	50 to 500 nM
O=C(Nc1cccc2c1CCN2CC1CC1)c1ccc(NS(=O)(=O)CCO)c2c1OCCO2 [Example 25, N-(1-(cyclopropylmethyl)indolin-4-yl)-8-((2-hydroxyethyl)sulfonamido)-2,3-dihydrobenzo[b][1,4]dioxine-5-carboxamide]	> 5000 nM
CN1CCCc2c(NC(=O)c3ccc(NS(=O)(=O)CCO)cc3N3CCC4(CC3)CC4)ccnc21 [Example 7, 4-(2-hydroxyethyl)sulfonamido-N-(8-methyl-5,6,7,8-tetrahydro-1,8-naphthyridin-4-yl)-2-(6-azaspiro[2.5]octan-6-yl)benzamide]	50 to 500 nM
O=C(Nc1ccc2c(c1)CCN2CC1CC1)Nc1ccc(NS(=O)(=O)CCO)cc1N1CCC2(CC1)CC2 [Example 151, N-(4-(3-(1-(cyclopropylmethyl)indolin-5-yl)urea)-3-(6-azaspiro[2.5]octan-6-yl)phenyl)-2-hydroxyethane-1-sulfonamide]	> 5000 nM
Cn1ccc2c(NC(=O)c3ccc(NS(=O)(=O)CCO)cc3N3CCC4(CC3)CC4)cccc21 [Example 10, 4-((2-hydroxyethyl)sulfonamido)-N-(1-methyl-1H-indol-4-yl)-2-(6-azaspiro[2.5]octan-6-yl)benzamide]	50 to 500 nM
CNc1cc(NS(=O)(=O)CCO)cc(N2CCC3(CC2)CC3)c1C(=O)Nc1cccc2c1ccn2CC1CC1 [Example 39]	50 to 500 nM
CN1CCc2c(NC(=O)c3ccc(NS(=O)(=O)CCO)cc3N3CCC4(CC3)CC4)cccc21 [Example 6, 4-(N-(2-hydroxyethyl)sulfonamido)-N-(1-methylindolin-4-yl)-2-(6-azaspiro[2.5]octan-6-yl)benzamide]	50 to 500 nM
O=C(Nc1ccnc2c1CCCN2CC1CC1)c1ccc(NS(=O)(=O)CCO)cc1N1CCC2(CC1)CC2 [Example 8, 4-(2-hydroxyethyl)sulfonamido-N-(8-cyclopropylmethyl-5,6,7,8-tetrahydro-1,8-naphthyridin-4-yl)-2-(6-azaspiro[2.5]octan-6-yl)benzamide]	50 to 500 nM
O=C(Nc1ccnc(N2CCC(F)(F)CC2)c1)c1ccc(NS(=O)(=O)CCO)cc1OC1CCCC1 [Example 28, 2-(cyclopentoxy)-N-(2-(4,4-difluoropiperidin-1-yl)pyridin-4-yl)-4-((2-hydroxyethyl)sulfonamide)benzamide]	500 to 5000 nM
O=C(Nc1cccc2c1ccn2CC1CC1)c1ccc(NS(=O)(=O)CCO)nc1N1CCC2(CC1)CC2 [Example 38, N-(1-(cyclopropylmethyl)-1H-indol-4-yl)-6-((2-hydroxyethyl)sulfonamido)-2-(6-azaspiro[2.5]oct-6-yl)nicotinamide]	50 to 500 nM
O=C(Nc1cccc2c1CCN2CC1CC1)c1ccc(NS(=O)(=O)CCO)cc1OC1CCCCC1 [Example 27, 2-(cyclohexyloxy)-N-(1-(cyclopropylmethyl)indolin-4-yl)-4-((2-hydroxyethyl)sulfonamide)benzamide]	500 to 5000 nM
CN1CCCCc2c(NC(=O)c3ccc(NS(=O)(=O)CCO)cc3N3CCC4(CC3)CC4)cccc21 [Example 11, 4-((2-hydroxyethyl)sulfonamido)-N-(1-methyl-2,3,4,5-tetrahydro-1H-benzo[b]azepin-6-yl)-2-(6-azaspiro[2.5]octan-6-yl)benzamide]	500 to 5000 nM
O=C(Nc1cccc2c1C1(CC1)C(=O)N2CC1CC1)c1ccc(NS(=O)(=O)CCO)cc1N1CCC2(CC1)CC2 [Example 17, N-(1′-(cyclopropylmethyl)-2′-oxospiro[cyclopropane-1,3′-indolin]-4′-yl)-4-((2-hydroxyethyl)sulfonamido)-2-(6-azaspiro[2.5]octan-6-yl)benzamide]	> 5000 nM
O=C(Nc1cccc2c1CCN2CC1CC1)c1ccc(NS(=O)(=O)CCO)cc1OC1CCCC1 [Example 30, 2-(cyclopentoxy)-N-(1-(cyclopropylmethyl)indolin-4-yl)-4-((2-hydroxyethyl)sulfonamide)benzamide]	500 to 5000 nM
O=C(Nc1ccnc(N2CCC(F)(F)CC2)c1)c1ccc(NS(=O)(=O)CCO)cc1OC1CCC(F)(F)CC1 [Example 24, 2-((4,4-difluorocyclohexyl)oxy)-N-(2-(4,4-difluoropiperidin-1-yl)pyridin-4-yl)-4-((2-hydroxyethyl)sulfonamide)benzamide]	500 to 5000 nM
O=C(Nc1cccc2c1CCN2CC1CCCC1)c1ccc(NS(=O)(=O)CCO)cc1N1CCC2(CC1)CC2 [Example 15, N-(1-(cyclopentylmethyl)dihydroindol-4-yl)-4-((2-hydroxyethyl)sulfonamido)-2-(6-azaspiro[2.5]oct-6-yl)benzamide]	500 to 5000 nM
COC1c2cc3c(NC(=O)c4ccc(NS(=O)(=O)CCO)cc4N4CCC5(CC4)CC5)cccc3n2CCC1(F)F (single isomer, unassigned) [Compound 385-P1, N-(8,8-difluoro-9-(methoxy-d3)-6,7,8,9-tetrahydropyridino[1,2-a]indol-1-yl)-4-((2-hydroxyethyl)sulfonamido)-2-(6-azaspiro[2.5]oct-6-yl)benzamide]	50 to 500 nM
O=C(Nc1cccc2c1ccn2CC1(C(F)(F)F)CC1)c1ccc(NS(=O)(=O)CCO)cc1N1CCC2(CC1)CC2 [Example 284]	500 to 5000 nM
CNc1cc(NS(=O)(=O)CCO)cc(N2CCC3(CC2)CC3)c1C(=O)Nc1ccnc2c1ccn2CC1CC1 [Example 40]	50 to 500 nM
